Entries after “also recorded” stand apart in the source; their conditions may differ. Values belong to the molecule of their own block, whether it stands above or below them.
Experiments:
[1] = compared with hinokitiol; cited from earlier work
[2] = Liposome efflux assay (Fe3+ liposomal efflux, cell-free iron efflux); format: biochemical; conditions: for iron mobilization capacity / cell-free iron transport, effect of deuteration: deuterated vs protio compound, cell-free iron efflux, 37 °C, 40 min; for iron transport capability at higher concentrations: Fe3+ liposomal efflux, 50-150 μM, compared with hinokitiol or Tri-Methyl
Protocol: After evaporation under a stream of nitrogen, films were placed under hi-vacuum for 18 hours to ensure quantitative solvent removal. […] LUVs were subjected to size exclusion chromatography, using a ~20 cm column of Sephadex® G-50 Medium resin that was hydrated in liposome outside buffer (600 mM sodium ascorbate, 50 mM MES/TRIS pH 7.0).
Determination of total phosphorous was performed utilizing the Bartlett Assay. Briefly, the LUV suspension was diluted 10-fold in liposome outside buffer, then 10 μL of this solution was placed in three 7 mL vials along with 10 μL of liposome outside buffer for background. […] The samples were then allowed to fully cool and diluted using 3.9 mL of Milli-Q water. […] of 2.5% w/v ammonium molybdate was then added, then the samples were vortexed, then […] of 10% w/v ascorbic acid was added. The samples were then re-vortexed, capped, and heated at 100 °C for seven minutes. The samples were allowed to fully cool then read at A820 and compared to a phosphorous standard curve to determine the total quantity of phosphorous.
16 mL of liposome suspension was created with the following components: […] of ferrozine solution (100× stock, 50 mM in liposome outside buffer), LUV suspension (to a final concentration of 1 mM phosphorous), and liposome outside buffer up to 16 mL. […] of liposome suspension was then added to a 96 well plate (NUM) using a multichannel pipettor. The plate was then placed in a plate reader and equilibrated at 37 °C for 5 minutes, then read for a baseline measurement. Following this equilibration, compound was added at the designated concentrations (40× stock in DMSO) using a multichannel pipettor, and the plate was then incubated at 37 °C for 40 min. Reads were taken every minute at A562 and the plate mixed at 220 rpm. Total iron efflux was determined via […]-iron complex signal. These experiments were performed in triplicate, with a minimum of two biological replicates.

[3] = Dynamic light scattering (aggregation); format: physicochemical; conditions: for aggregation tendency: aqueous media, in words
Protocol: Dynamic light scattering was performed on a Malvern Zetasizer Nano using disposable cuvettes. […] Compound at the specified concentration (from 1000× in DMSO), as well as equimolar FeCl3 (1000× in 0.1 M HCl) were added to this buffer. After addition, these compounds were vortexed for 30 sec, sonicated for one min, then further vortexed for 30 sec before a five-minute equilibration in the Zetasizer at 37 °C. All standard parameters were used, with each graph representing a minimum of thirty 10 second measurements. For count rate analysis, the raw count rate was utilized, accounting for any differences in attenuator position between samples.

[4] = background; cited from earlier work
[5] = Complex formation with iron / crystallographic data; format: physicochemical
[6] = tested on: mitoferrin 1 (MFRN1−) deficient cells and animals; conditions: cited from earlier work
shDMT1-Caco-2 monolayer = test: Iron transport in differentiated shDMT1(-Caco-2) monolayers; format: cell-based
[7] = tested on: divalent metal transporter 1 (DMT1−) deficient cells and animals; conditions: cited from earlier work
[8] = tested on: ferroportin 1 (FPN1−) deficient cells and animals; conditions: cited from earlier work

SMILES: CC(C)c1ccc(O)c(=O)cc1 [GT]
- aggregation, previously shown [1]: less aggregation
- iron mobilization capacity / cell-free iron transport, effect of deuteration [2]: no deuteration effect on cell-free iron transport

SMILES: [2H]C([2H])([2H])C([2H])([2H])C([2H])([2H])C([2H])([2H])c1cccc(=O)c(O)c1 [4 nBu-d9, 2-hydroxy-4-(butyl-d9)cyclohepta-2,4,6-trien-1-one]
- iron mobilization capacity / cell-free iron transport, effect of deuteration [2]: maintains transport levels at concentrations when the parent compound suffers from limiting higher order aggregation
- iron mobilization capacity / cell-free iron transport, effect of deuteration ([2]; listed as 4-n-buytl-(d9)-tropolone): extends transport window
- concentration of compound up to which noticeable transmembrane transport of iron is demonstrated ([2]; liposome efflux assay, before dropping to baseline): 75 µM

SMILES: [2H]C([2H])([2H])C([2H])(c1cccc(=O)c(O)c1)C([2H])([2H])[2H] [hinokitiol-d7, 2-hydroxy-4-(isopropyl-d7)-cyclohepta-2,4,6-trien-1-one]
- aggregation by dynamic light scattering ([3]; 20-100 μM with equimolar iron, pH 7.0, 37 °C): aggregates less via lesser photon deflection counts and particle size
- iron transport capability at higher concentrations [2]: significantly greater iron transport capability at higher concentrations (50-150 μM) when compared to hinokitiol

SMILES: Cc1cc(C)c(O)c(=O)c(C)c1 [Tri-Methyl]
- aggregation tendency [3]: aggregates less

More lines, main results first:

- aggregation tendency [3]: highly aggregating
SMILES: CCCCc1cccc(=O)c(O)c1 [4 nBu, 2-hydroxy-4-butylcyclohepta-2,4,6-trien-1-one]
- concentration of compound at which noticeable transport ceases ([2]; liposome efflux assay, due to higher order aggregation): 40 µM

- aggregation tendency ([3]; listed as Hinokitiol): highly aggregative
- complex formation with Fe(III) [5]: forms a 3:1 complex with Fe(III)
SMILES: CC(C)c1cccc(=O)c(O)c1 [hinokitiol]
- complex formation with iron [4]: reversibly forming a 3:1 complex with iron
- aggregation tendency [3]: predisposed at higher concentrations to form higher-order aggregates; also recorded: formation of higher-order aggregates in aqueous media
- restoration of iron homeostasis [6]: restores iron homeostasis
- iron transport capability at higher concentrations [2]: begins to aggregate
- iron transport / mobilization (shDMT1-Caco-2 monolayer): effectively mobilizes iron at low-to-intermediate concentrations; also recorded: at higher concentrations, a substantial decrease in transmembrane mobilizing activity was observed
- restoration of iron homeostasis [7]: restores iron homeostasis
- restoration of iron homeostasis [8]: restores iron homeostasis

From patent US20260347280A1, “DEUTERATED HINOKITIOL DERIVATIVES” (priority 2022, published 2026)
